Data reported in patent US10508120B2, “TYK2 inhibitors and uses thereof” (Nimbus Lakshmi, Inc., priority 2017, dated 2019).

Columns and labels:
[1] = molecular target: human TYK2 (JH2domain-pseudokinase) (Homo sapiens (Human), UniProt P29597); test: TYK2 JH2 Domain Binding Assay (KINOMEscan)
Method in brief: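 Pseudokinase domain binding was measured by qPCR of tagged, bead-retained kinase after 1 h room-temperature competition, with 0.9% DMSO and compound up to 30,000 nM in 3-fold steps. Hill-equation Kd, duplicate.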

Tyk2 kinase domain (DH1) = Tyk2 kinase domain (DH1) (Homo sapiens (Human), UniProt P29597); test: Tyk2 Radioactive Kinase Assay; format: biochemical; settings: compound at 10 μM, ATP 10 μM; for inhibition at 10 µM: read-out: Tyk2 JH1% Inhibition @ 10 μM
Chain of Tyk2 kinase domain (DH1) (P29597 897-1176): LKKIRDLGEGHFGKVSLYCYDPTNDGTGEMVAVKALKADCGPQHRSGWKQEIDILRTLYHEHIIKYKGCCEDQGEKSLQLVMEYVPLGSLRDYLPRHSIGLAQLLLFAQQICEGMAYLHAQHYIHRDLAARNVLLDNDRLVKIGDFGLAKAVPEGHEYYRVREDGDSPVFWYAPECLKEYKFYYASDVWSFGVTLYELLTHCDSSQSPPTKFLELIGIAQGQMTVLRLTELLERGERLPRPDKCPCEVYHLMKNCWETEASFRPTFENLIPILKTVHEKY
Method in brief: (§1)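 Compounds were tested at a single concentration of 10 μM in a radiometric kinase format against each isolated kinase domain. Activity is reported as percent inhibition at that concentration.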

JAK2 kinase domain (JH1) = JAK2 kinase domain (JH1) (Homo sapiens (Human), UniProt O60674); test: JAK2 Radioactive Kinase Assay; format: biochemical; settings: compound at 10 μM, ATP 10 μM; for inhibition at 10 µM: read-out: JAK2 JH1% Inhibition @ 10 μM
Chain of JAK2 kinase domain (JH1) (O60674 849-1124): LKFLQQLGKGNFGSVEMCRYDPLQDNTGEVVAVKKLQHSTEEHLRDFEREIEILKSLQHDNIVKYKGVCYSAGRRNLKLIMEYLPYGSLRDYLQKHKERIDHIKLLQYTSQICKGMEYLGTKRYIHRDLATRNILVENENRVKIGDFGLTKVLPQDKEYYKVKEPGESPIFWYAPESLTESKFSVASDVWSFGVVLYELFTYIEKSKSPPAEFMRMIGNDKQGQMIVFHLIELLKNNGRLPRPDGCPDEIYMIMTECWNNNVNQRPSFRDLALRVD
Method in brief: as §1

Chain of human TYK2 (JH2domain-pseudokinase) (P29597 556-888): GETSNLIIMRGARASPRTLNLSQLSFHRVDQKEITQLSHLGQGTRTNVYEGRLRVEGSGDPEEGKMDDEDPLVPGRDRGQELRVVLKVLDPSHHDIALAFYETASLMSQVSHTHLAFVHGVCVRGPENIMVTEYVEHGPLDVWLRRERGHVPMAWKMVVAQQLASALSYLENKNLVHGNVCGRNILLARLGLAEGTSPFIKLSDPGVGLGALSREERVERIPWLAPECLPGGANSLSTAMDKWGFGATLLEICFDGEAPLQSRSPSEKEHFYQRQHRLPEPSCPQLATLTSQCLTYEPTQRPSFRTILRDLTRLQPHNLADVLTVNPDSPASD

| Compound | Kd [1] | inhibition at 10 µM (Tyk2 kinase domain (DH1)) | inhibition at 10 µM (JAK2 kinase domain (JH1)) | Tyk2 JH1% Inhibition @ 10 μM (Tyk2 kinase domain (DH1)) | JAK2 JH1% Inhibition @ 10 μM (JAK2 kinase domain (JH1)) |
| --- | --- | --- | --- | --- | --- |
| CNc1cc(-n2cc(N3CCN(C)CC3)c3ncccc32)nc2c(C(=O)NC3CC3)cnn12 [I-574] | 1 to 10 nM | < 50% | < 50% |  |  |
| CNc1cc(-n2cc(N3CCN(C)CC3)c3ncccc32)nc2c(C(=O)N[C@H]3C[C@H]3F)cnn12 [I-575] | 1 to 10 nM | < 50% | < 50% |  |  |
| CNc1cc(Nc2c(F)ccn(-c3nccs3)c2=O)nc2c(C(=O)NC3CC3)cnn12 [I-581] | 1 to 10 nM | < 50% | < 50% |  |  |
| CNc1cc(-c2cn(CCN3CCOCC3)c3ncccc23)nc2c(C(=O)NC3CC3)cnn12 [I-582] | < 0.2 nM | < 50% | < 50% |  |  |
| CNc1cc(-c2cn(CCN3CCOCC3)c3ncccc23)nc2c(C(=O)N[C@H]3C[C@H]3F)cnn12 [I-583] | < 0.2 nM | < 50% | < 50% |  |  |
| CNc1cc(-c2cn(CCN3CCCCC3)c3ncccc23)nc2c(C(=O)NC3CC3)cnn12 [I-584, N-cyclopropyl-7-(methylamino)-5-(1-(2-(piperidin-1-yl)ethyl)-1H-pyrrolo[2,3-b]pyridin-3-yl)pyrazolo[1,5-a]pyrimidine-3-carboxamide] | < 0.2 nM | < 50% | < 50% |  |  |
| CNc1cc(-c2cn(C(C)C)c3ncccc23)nc2c(C(=O)NCC3(CO)CC3)cnn12 [I-587] | 0.2 to 1 nM | < 50% | < 50% |  |  |
| CNc1cc(-c2cn(C(C)C)c3ncccc23)nc2c(C(=O)NCC(C)(C)CO)cnn12 [I-588, N-(3-hydroxy-2,2-dimethylpropyl)-5-(1-isopropyl-1H-pyrrolo[2,3-b]pyridin-3-yl)-7-(methylamino)pyrazolo[1,5-a]pyrimidine-3-carboxamide] | 0.2 to 1 nM | < 50% | < 50% |  |  |
| CNc1cc(Nc2cccc(N3CCOCC3)n2)nc2c(C(=O)NC3CC3)cnn12 [I-589] | < 0.2 nM | < 50% | < 50% |  |  |
| CNc1cc(Nc2cccn(-c3ncccc3F)c2=O)nc2c(C(=O)NCC(C)CO)cnn12 (stereo not drawn) [I-593, 5-((3′-fluoro-2-oxo-2H-[1,2′-b]pyridinyl-3-yl)amino)-N-(3-hydroxy-2-methylpropyl)-7-(methylamino)pyrazolo[1,5-a]pyrimidine-3-carboxamide] | < 0.2 nM | < 50% | < 50% |  |  |

More lines, main results first:

| Kd [1] | inhibition at 10 µM (Tyk2 kinase domain (DH1)) | inhibition at 10 µM (JAK2 kinase domain (JH1)) | Compound | Tyk2 JH1% Inhibition @ 10 μM (Tyk2 kinase domain (DH1)) | JAK2 JH1% Inhibition @ 10 μM (JAK2 kinase domain (JH1)) |
| --- | --- | --- | --- | --- | --- |
| 1 to 10 nM | < 50% | < 50% | CNc1cc(Nc2cccn(CCOC3CC3)c2=O)nc2c(C(=O)NC3CC4(COC4)C3)cnn12 [I-576, 5-((1-(2-cyclopropoxyethyl)-2-oxo-1,2-dihydropyridin-3-yl)amino)-7-(methylamino)-N-(2-oxaspiro[3.3]heptan-6-yl)pyrazolo[1,5-a]pyrimidine-3-carboxamide] |  |  |
| 0.2 to 1 nM | < 50% | < 50% | CNc1cc(Nc2cccn(CCOC3CC3)c2=O)nc2c(C(=O)NCC3(CO)CC3)cnn12 [I-577, 5-((1-(2-cyclopropoxyethyl)-2-oxo-1,2-dihydropyridin-3-yl)amino)-N-((1-(hydroxymethyl)cyclopropyl)methyl)-7-(methylamino)pyrazolo[1,5-a]pyrimidine-3-carboxamide] |  |  |
| < 0.2 nM | < 50% | < 50% | CNc1cc(Nc2cccc([C@H]3CCCOC3)n2)nc2c(C(=O)NCC(C)(C)CO)cnn12 [I-579] |  |  |
| < 0.2 nM | < 50% | < 50% | CNc1cc(Nc2cccc([C@@H]3CCCOC3)n2)nc2c(C(=O)NCC(C)(C)CO)cnn12 [I-580] |  |  |
| 0.2 to 1 nM |  |  | CNc1cc(Nc2cccn([C@@H]3CCOC[C@@H]3OC)c2=O)nc2c(C(=O)NC3CC3)cnn12 [I-594] | A (percent inhibition at 10 μM lower than 50) | A (percent inhibition at 10 μM lower than 50) |
| 1 to 10 nM | < 50% | < 50% | CNc1cc(Nc2cccn([C@H]3CCOC[C@H]3OC)c2=O)nc2c(C(=O)NC3CC3)cnn12 [I-595] |  |  |
| 0.2 to 1 nM | < 50% | < 50% | CNc1cc(Nc2cccn(C3CCOCC3)c2=O)nc2c(C(=O)N[C@@H]3CC[C@H]3O)cnn12 [I-597] |  |  |
| < 0.2 nM | 50 to 70% | < 50% | CNc1cc(Nc2cccn([C@@H]3CCCOC3)c2=O)nc2c(C(=O)NCC(C)(C)CO)cnn12 [I-598] |  |  |
| < 0.2 nM | < 50% | < 50% | CNc1cc(Nc2cccn([C@H]3CCCOC3)c2=O)nc2c(C(=O)NCC(C)(C)CO)cnn12 [I-599] |  |  |
| < 0.2 nM | < 50% | < 50% | CNc1cc(Nc2cccn(-c3cnn(C[C@@H]4CCOC4)c3)c2=O)nc2c(C(=O)NC3CC3)cnn12 [I-600] |  |  |
| < 0.2 nM | < 50% | < 50% | CNc1cc(Nc2cccn(-c3cnn(C[C@H]4CCOC4)c3)c2=O)nc2c(C(=O)NC3CC3)cnn12 [I-601] |  |  |
